Read-outs that look alike come from different tables or passages of the source.
Legend:
[1] = tested on: HT-29 cells; test: HT29 cell proliferation assay, CTG method; type: cell-based; conditions: HT-29, CTG, 96 h, median, read-out: 2D-PROLI HT-29 CTG 96 h, IC50 - [mol/l] (median)
Procedure: CELL PROLIFERATION ASSAY CTG METHOD, 384-well version: Day 1: plated 400 cells/30 μL/well in growth medium (DMEM/Ham's F12; (Biochrom; #FG 4815, mit stabilem Glutamin)+FCS (final: 10%); (Biochrom; #S 0415)) in 384-well black plates (Corning #3571). Plated sister wells in a separate plate for time zero determination. Incubated all plates overnight at 37° C. Day 2: added test compounds in serial dilutions using the HP D300 Digital Dispenser and incubated at 37° C. for 96 h. Measured time zero plate: add 30 μL/well CTG solution (Promega CellTiter-Glo solution (catalog #G7573)) to wells in time zero plate; incubated for 2 minutes in a orbital shaker to induce cell lysis; allowed the plate to incubate at room temperature for additional 10 min to stabilize luminescent signal and read luminescence on PheraStar (rapid mode—0.02 sec/well; GAIN 3000). Day 6: Added 30 μL/well CTG solution to all test wells, incubated for 2 minutes in a orbital shaker to induce cell lysis; allowed the plate to incubate at room temperature for additional 10 min to stabilize luminescent signal and read luminescence on PheraStar (rapid mode—0.02 sec/well; GAIN 3000 Proliferation IC50s were calculated using the DRC application in ShiNy Analysis Platform-SNAP.”

[2] = target: human CSNK1G3 (Homo sapiens (Human), UniProt Q9Y6M4); test: CSNK1G3 assay (ADP-Glo); type: biochemical; conditions: median, read-out: CSNK1G IC50 [mol/l] (median)
Chain of human CSNK1G3 (Q9Y6M4 whole entry): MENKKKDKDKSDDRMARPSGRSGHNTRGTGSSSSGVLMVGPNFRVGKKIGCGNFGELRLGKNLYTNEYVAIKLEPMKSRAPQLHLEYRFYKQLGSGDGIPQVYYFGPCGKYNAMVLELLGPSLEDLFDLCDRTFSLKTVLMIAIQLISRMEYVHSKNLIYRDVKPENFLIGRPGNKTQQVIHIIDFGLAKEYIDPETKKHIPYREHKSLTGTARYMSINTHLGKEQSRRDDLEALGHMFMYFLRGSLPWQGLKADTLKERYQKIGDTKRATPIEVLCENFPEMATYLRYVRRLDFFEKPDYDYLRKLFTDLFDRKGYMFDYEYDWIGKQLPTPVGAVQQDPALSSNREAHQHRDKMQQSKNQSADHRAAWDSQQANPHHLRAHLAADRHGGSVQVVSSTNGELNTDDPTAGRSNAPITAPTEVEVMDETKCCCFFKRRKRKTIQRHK
Procedure: CSNK1G3-inhibitory activity of compounds of the present invention in presence of 1 μM adenosine-tri-phosphate (ATP) was quantified employing the CSNK1G3 assay as described in the following paragraphs. In essence, the enzyme activity is measured by quantification of the adenosine-di-phosphate (ADP), which is generated as a co-product of the enzyme reaction, via the “ADP-Glo™ Kinase Assay” kit from the company Promega. This detection system works as follows: In a first step the ATP not consumed in the kinase reaction is quantitatively converted to CAMP employing an adenylate cyclase (“ADP-Glo-reagent”), then the adenylate cyclase is stopped and the ADP generated in the kinase reaction converted to ATP which generates in a luciferase-based reaction a glow-luminescence signal (“Kinase Detection Reagent”).
Recombinant fusion protein of N-terminal Glutathion-S-Transferase (GST) and full-length human CSNK1G3, expressed by baculovirus infected insect cells and purified via Glutathion affinity chromatography, was purchased from Life Technologies (product no. PV3838) and used as enzyme. As substrate for the kinase reaction the biotinylated peptide biotin-Ahx-KRRRAL-pS-VASLPGL (C-terminus in amide form) was used which can be purchased e.g. from the company Biosyntan (Berlin-Buch, Germany).
For the assay 50 nl of a 100 fold concentrated solution of the test compound in DMSO was pipetted into a white 1536-well microtiter plate (Greiner Bio-One, Frickenhausen, Germany), 2 μL of a solution of CSNK1G3 in aqueous assay buffer [50 mM HEPES pH 7.5, 10% (v/v) glycerol, 10 mM MgCl2, 50 mM NaCl, 1 mM dithiothreitol, 0.01% (w/v) bovine serum albumin, 0.01% (v/v) Triton X-100] were added and the mixture was incubated for 15 min at 22° C. to allow pre-binding of the test compounds to the enzyme before the start of the kinase reaction. Then the kinase reaction was started by the addition of 3 μL of a solution of ATP ([…]=>final conc. in the 5 μL assay volume is 1 M) and peptide substrate (50 μM=>final conc. in the 5 μL assay volume is 30 μM) in assay buffer and the resulting mixture was incubated for a reaction time of 30 min at 22° C. The concentration of CSNK1G3 was adjusted depending of the activity of the enzyme lot and was chosen appropriate to have the assay in the linear range, a typical concentration is about 0.06 ng/μL. The reaction was stopped by the addition of 2.5 μL of “ADP-Glo-reagent” (1:1.5 fold diluted with water) and the resulting mixture was incubated at 22° C. for 1 h to convert the ATP not consumed in the kinase reaction completely to CAMP. Subsequently 2.5 μL of the “kinase detection reagent” (1.2 fold more concentrated than recommended by the producer) were added, the resulting mixture was incubated at 22° C. for 1 h and then the luminescence measured with a suitable measurement instrument (e.g. Viewlux™ from Perkin-Elmer). The amount of emitted light was taken as a measure for the amount of ADP generated and thereby for the activity of the CSNK1G3.
The data were normalised (enzyme reaction without inhibitor=0% inhibition, all other assay components but no enzyme=100% inhibition).

[3] = tested on: HCT 116 cells; test: HCT 116 cell proliferation assay, CTG; type: cell-based; conditions: HCT 116, CTG, 96 h, median, read-out: 2D-PROLI HCT 116 CTG 96 h, IC50 - [mol/l] (median)
Procedure: 400 HCT 116 cells/30 μL/well were plated in growth medium (DMEM/Ham's F12, 10% FCS) in a 384-well plate (CORNING #3571) at day 1. Reference plate was seeded for time zero determination. All plates were incubated overnight 37° C. Day 2: test compound was added in 7-step dilution and incubate at 37° C. for 96 h. Day 2: time zero plate: 30 μL/well CTG solution (Promega Cell Titer Glo solution; catalog #G755B and G756B) were added, incubated for 30 minutes, read luminescence on PheraStar. Day 6: compound treated plates: 30 μL/well CTG solution (Promega Cell Titer Glo solution; catalog #G755B and G756B) were added, incubated for 30 minutes, luminescence was read on PheraStar. Proliferation was calculated after subtracting time zero luminescence values from day 6 values and comparing to untreated wells. The IC50 values were determined using the four parameter fit.

IC50 [1] [nM]	IC50 [2] [nM]	IC50 [3] [nM]	IC50 ([1]; Homo sapiens) [nM]	IC50 ([3]; Homo sapiens) [nM]	Compound
88.8	2.4	184	–	–	O=C(Nc1cc(-c2[nH]c3ccc(F)nc3c2-c2ccccn2)ccn1)[C@@H](CC(F)F)c1ccc(F)cc1 [Example C2, reference compound]
–	68.9	–	1650	1140	Cc1nocc1CC(=O)Nc1cc(-c2[nH]c3cccnc3c2-c2ccccn2)ccn1 [Example 30, 2-(3-methylisoxazol-4-yl)-N-[4-[3-(2-pyridyl)-^1H-pyrrolo[3,2-b]pyridin-2-yl]-2-pyridyl]acetamide]
110	6.22	735	–	–	O=C(Nc1cc(-c2[nH]c3c(OCC(F)F)ncnc3c2-c2ccccn2)ccn1)[C@@H](CC(F)F)c1ccc(F)cc1 [Example C3, reference compound]
206	6.54	429	–	–	O=C(Nc1cc(-c2[nH]c3nccnc3c2-c2ccccn2)ccn1)[C@@H](CC(F)F)c1ccc(F)cc1 [Example C1, reference compound]

More lines, now with the values behind:

Compound	IC50 [1] [nM]	IC50 [2] [nM]	IC50 [3] [nM]	IC50 ([1]; Homo sapiens) [nM]	IC50 ([3]; Homo sapiens) [nM]
Cn1nc(CC(=O)Nc2cc(-c3[nH]c4cccnc4c3-c3ccccn3)ccn2)cc1C1CC1 [Example 29, 2-(5-cyclopropyl-1-methyl-pyrazol-3-yl)-N-[4-[3-(2-pyridyl)-^1H-pyrrolo[3,2-b]pyridin-2-yl]-2-pyridyl]acetamide]	–	27.4	–	340	518
Cc1ncc(CC(=O)Nc2cc(-c3[nH]c4cccnc4c3-c3ccccn3)ccn2)o1 [Example 24, 2-(2-methyloxazol-5-yl)-N-[4-[3-(2-pyridyl)-^1H-pyrrolo[3,2-b]pyridin-2-yl]-2-pyridyl]acetamide]	–	39.9	–	481	418
Cc1ocnc1CC(=O)Nc1cc(-c2[nH]c3cccnc3c2-c2ccccn2)ccn1 [Example 11, 2-(5-methyloxazol-4-yl)-N-[4-[3-(2-pyridyl)-^1H-pyrrolo[3,2-b]pyridin-2-yl]-2-pyridyl]acetamide]	–	120	–	1410	964
CC(C)n1ccc(CC(=O)Nc2cc(-c3[nH]c4cccnc4c3-c3ccccn3)ccn2)n1 [Example 28, 2-(1-isopropylpyrazol-3-yl)-N-[4-[3-(2-pyridyl)-^1H-pyrrolo[3,2-b]pyridin-2-yl]-2-pyridyl]acetamide]	–	20.4	–	314	586
O=C(Cc1cc(C2CC2)on1)Nc1cc(-c2[nH]c3cccnc3c2-c2ccccn2)ccn1 [Example 27, 2-(5-cyclopropylisoxazol-3-yl)-N-[4-[3-(2-pyridyl)-^1H-pyrrolo[3,2-b]pyridin-2-yl]-2-pyridyl]acetamide]	–	19.7	–	338	489
Cn1nc(CC(=O)Nc2cc(-c3[nH]c4cccnc4c3-c3ccccn3)ccn2)cc1C(F)(F)F [Example 21, 2-[1-methyl-5-(trifluoromethyl)pyrazol-3-yl]-N-[4-[3-(2-pyridyl)-^1H-pyrrolo[3,2-b]pyridin-2-yl]-2-pyridyl]acetamide]	–	29.7	–	222	362
O=C(Cc1cnc2ccccn12)Nc1cc(-c2[nH]c3cccnc3c2-c2ccccn2)ccn1 [Example 1, 2-imidazo[1,2-a]pyridin-3-yl-N-[4-[3-(2-pyridyl)-^1H-pyrrolo[3,2-b]pyridin-2-yl]-2-pyridyl]acetamide]	–	71.7	–	2670	3870

Reference: patent US20250188075A1, “SUBSTITUTED HETEROCYCLIC CSNK1 INHIBITORS” (The Broad Institute, Inc., priority 2022, published 2025)
